± gives the expanded uncertainty stated by the source.

For the data set the following is noted: 298.15 K; 101.33 kPa; Liquid; Vibrating tube method.
A word on the mass density: it is mass per unit of volume. Regarding `CCCCCCCCCCCCCC` [tetradecane], the mass density came out at 759.27 ± 0.24 kg/m3. The same measure for `CCCCCCCCCCCC` [dodecane]: 741.54 ± 0.58 kg/m3; for `O=Cc1ccccc1` [benzaldehyde]: 1042.94 ± 0.26 kg/m3. The same measure for `CCCCCCCCCCCCCCCC` [hexadecane]: 770.21 ± 0.24 kg/m3; for `CCCCCCCCCC` [decane]: 726.43 ± 0.25 kg/m3.

The values are drawn from the NIST ThermoML archive (doi:10.1016/j.fluid.2014.01.013).
